In ChEMBL document CHEMBL5113398, “Design and synthesis of new quinoline derivatives as selective C-RAF kinase inhibitors with potent anticancer activity” (Eur J Med Chem, 2022):

Columns and labels:
HL-60 = assay: Anticancer activity against human HL-60 cells assessed as cell growth inhibition incubated for 48 hrs by SRB assay; format: functional
RPMI-8226 [1] = assay: Anticancer activity against human RPMI-8226 cells assessed as cell growth inhibition incubated for 48 hrs by SRB assay; format: functional
A549 = assay: Anticancer activity against human A549 cells assessed as cell growth inhibition incubated for 48 hrs by SRB assay; format: functional
NCI-H460 = assay: Anticancer activity against human NCI-H460 cells assessed as cell growth inhibition incubated for 48 hrs by SRB assay; format: functional
NCI-H522 = assay: Anticancer activity against human NCI-H522 cells assessed as cell growth inhibition incubated for 48 hrs by SRB assay; format: functional
COLO 205 [2] = assay: Anticancer activity against human COLO 205 cells assessed as cell growth inhibition incubated for 48 hrs by SRB assay; format: functional
SF-295 = assay: Anticancer activity against human SF-295 cells assessed as cell growth inhibition incubated for 48 hrs by SRB assay; format: functional
LOX IMVI = assay: Anticancer activity against human LOX IMVI cells assessed as cell growth inhibition incubated for 48 hrs by SRB assay; format: functional
Malme-3M [3] = assay: Anticancer activity against human Malme-3M cells assessed as cell growth inhibition incubated for 48 hrs by SRB assay; format: functional
SK-MEL-28 = assay: Anticancer activity against human SK-MEL-28 cells assessed as cell growth inhibition incubated for 48 hrs by SRB assay; format: functional
UACC-257 = assay: Anticancer activity against human UACC-257 cells assessed as cell growth inhibition incubated for 48 hrs by SRB assay; format: functional
UACC-62 [4] = assay: Anticancer activity against human UACC-62 cells assessed as cell growth inhibition incubated for 48 hrs by SRB assay; format: functional
OVCAR-5 [5] = assay: Anticancer activity against human OVCAR-5 cells assessed as cell growth inhibition incubated for 48 hrs by SRB assay; format: functional
OVCAR-8 [6] = assay: Anticancer activity against human OVCAR-8 cells assessed as cell growth inhibition incubated for 48 hrs by SRB assay; format: functional
SK-OV-3 = assay: Anticancer activity against human SK-OV-3 cells assessed as cell growth inhibition incubated for 48 hrs by SRB assay; format: functional
ACHN [7] = assay: Anticancer activity against human ACHN cells assessed as cell growth inhibition incubated for 48 hrs by SRB assay; format: functional
RXF 393 = assay: Anticancer activity against human RXF 393 cells assessed as cell growth inhibition incubated for 48 hrs by SRB assay; format: functional
SN12C = assay: Anticancer activity against human SN12C cells assessed as cell growth inhibition incubated for 48 hrs by SRB assay; format: functional
TK-10 = assay: Anticancer activity against human TK-10 cells assessed as cell growth inhibition incubated for 48 hrs by SRB assay; format: functional
UO-31 = assay: Anticancer activity against human UO-31 cells assessed as cell growth inhibition incubated for 48 hrs by SRB assay; format: functional
PC-3 = assay: Anticancer activity against human PC-3 cells assessed as cell growth inhibition incubated for 48 hrs by SRB assay; format: functional
MDA-MB-231 = assay: Anticancer activity against human MDA-MB-231 cells assessed as cell growth inhibition incubated for 48 hrs by SRB assay; format: functional
MDA-MB-468 = assay: Anticancer activity against human MDA-MB-468 cells assessed as cell growth inhibition incubated for 48 hrs by SRB assay; format: functional
RPMI-8226 [8] = assay: Anticancer activity against human RPMI-8226 cells assessed as total cell growth inhibition incubated for 48 hrs by SRB assay; format: functional
HOP-62 = assay: Anticancer activity against human HOP-62 cells assessed as total cell growth inhibition incubated for 48 hrs by SRB assay; format: functional
COLO 205 [9] = assay: Anticancer activity against human COLO 205 cells assessed as total cell growth inhibition incubated for 48 hrs by SRB assay; format: functional
HT-29 = assay: Anticancer activity against human HT-29 cells assessed as total cell growth inhibition incubated for 48 hrs by SRB assay; format: functional
SW-620 = assay: Anticancer activity against human SW-620 cells assessed as total cell growth inhibition incubated for 48 hrs by SRB assay; format: functional
SF-539 = assay: Anticancer activity against human SF-539 cells assessed as total cell growth inhibition incubated for 48 hrs by SRB assay; format: functional
Malme-3M [10] = assay: Anticancer activity against human Malme-3M cells assessed as total cell growth inhibition incubated for 48 hrs by SRB assay; format: functional
UACC-62 [11] = assay: Anticancer activity against human UACC-62 cells assessed as total cell growth inhibition incubated for 48 hrs by SRB assay; format: functional
OVCAR-3 = assay: Anticancer activity against human OVCAR-3 cells assessed as total cell growth inhibition incubated for 48 hrs by SRB assay; format: functional
OVCAR-5 [12] = assay: Anticancer activity against human OVCAR-5 cells assessed as total cell growth inhibition incubated for 48 hrs by SRB assay; format: functional
OVCAR-8 [13] = assay: Anticancer activity against human OVCAR-8 cells assessed as total cell growth inhibition incubated for 48 hrs by SRB assay; format: functional
ACHN [14] = assay: Anticancer activity against human ACHN cells assessed as total cell growth inhibition incubated for 48 hrs by SRB assay; format: functional
[15] = target: Dual specificity mitogen-activated protein kinase kinase 1 (Homo sapiens) (UniProt Q02750); assay: Inhibition of MEK1 (unknown origin) at 1 uM in presence of ATP by hotspot kinase assay
[16] = target: Hepatocyte growth factor receptor (Homo sapiens) (UniProt P08581); assay: Inhibition of MET (unknown origin) at 1 uM in presence of ATP by hotspot kinase assay
[17] = target: Serine/threonine-protein kinase A-Raf (Homo sapiens) (UniProt P10398); assay: Inhibition of A-Raf (unknown origin) at 1 uM in presence of ATP by hotspot kinase assay
RPMI-8226 [18] = assay: Induction of apoptosis in human RPMI-8226 assessed as fold increase in caspase-3/7 activity at 0.84 uM; format: functional
RPMI-8226 [19] = assay: Induction of apoptosis in human RPMI-8226 assessed as fold increase in caspase-3/7 activity at 1.68 uM; format: functional
RPMI-8226 [20] = assay: Induction of apoptosis in human RPMI-8226 assessed as fold increase in caspase-3/7 activity at 2.12 uM; format: functional
RPMI-8226 [21] = assay: Induction of necrosis in human RPMI-8226 cells assessed as LDH release at 0.84 uM; format: functional
RPMI-8226 [22] = assay: Induction of necrosis in human RPMI-8226 cells assessed as LDH release at 1.68 uM; format: functional
RPMI-8226 [23] = assay: Induction of necrosis in human RPMI-8226 cells assessed as LDH release at 2.12 uM; format: functional
[24] = Apparent permeability of the compound from apical to basolateral side in human Caco-2 cells at pH 6.5 to 7.4; format: ADME, cell-based; settings: Caco-2, pH 6.5
[25] = Apparent permeability across apical to basolateral side in human Caco-2 cells assessed as drug recovery at pH 6.5 to 7.4; format: ADME, cell-based; settings: Caco-2, pH 6.5, read-out: Drug recovery

Sequence of Hepatocyte growth factor receptor (Homo sapiens) (P08581 whole entry): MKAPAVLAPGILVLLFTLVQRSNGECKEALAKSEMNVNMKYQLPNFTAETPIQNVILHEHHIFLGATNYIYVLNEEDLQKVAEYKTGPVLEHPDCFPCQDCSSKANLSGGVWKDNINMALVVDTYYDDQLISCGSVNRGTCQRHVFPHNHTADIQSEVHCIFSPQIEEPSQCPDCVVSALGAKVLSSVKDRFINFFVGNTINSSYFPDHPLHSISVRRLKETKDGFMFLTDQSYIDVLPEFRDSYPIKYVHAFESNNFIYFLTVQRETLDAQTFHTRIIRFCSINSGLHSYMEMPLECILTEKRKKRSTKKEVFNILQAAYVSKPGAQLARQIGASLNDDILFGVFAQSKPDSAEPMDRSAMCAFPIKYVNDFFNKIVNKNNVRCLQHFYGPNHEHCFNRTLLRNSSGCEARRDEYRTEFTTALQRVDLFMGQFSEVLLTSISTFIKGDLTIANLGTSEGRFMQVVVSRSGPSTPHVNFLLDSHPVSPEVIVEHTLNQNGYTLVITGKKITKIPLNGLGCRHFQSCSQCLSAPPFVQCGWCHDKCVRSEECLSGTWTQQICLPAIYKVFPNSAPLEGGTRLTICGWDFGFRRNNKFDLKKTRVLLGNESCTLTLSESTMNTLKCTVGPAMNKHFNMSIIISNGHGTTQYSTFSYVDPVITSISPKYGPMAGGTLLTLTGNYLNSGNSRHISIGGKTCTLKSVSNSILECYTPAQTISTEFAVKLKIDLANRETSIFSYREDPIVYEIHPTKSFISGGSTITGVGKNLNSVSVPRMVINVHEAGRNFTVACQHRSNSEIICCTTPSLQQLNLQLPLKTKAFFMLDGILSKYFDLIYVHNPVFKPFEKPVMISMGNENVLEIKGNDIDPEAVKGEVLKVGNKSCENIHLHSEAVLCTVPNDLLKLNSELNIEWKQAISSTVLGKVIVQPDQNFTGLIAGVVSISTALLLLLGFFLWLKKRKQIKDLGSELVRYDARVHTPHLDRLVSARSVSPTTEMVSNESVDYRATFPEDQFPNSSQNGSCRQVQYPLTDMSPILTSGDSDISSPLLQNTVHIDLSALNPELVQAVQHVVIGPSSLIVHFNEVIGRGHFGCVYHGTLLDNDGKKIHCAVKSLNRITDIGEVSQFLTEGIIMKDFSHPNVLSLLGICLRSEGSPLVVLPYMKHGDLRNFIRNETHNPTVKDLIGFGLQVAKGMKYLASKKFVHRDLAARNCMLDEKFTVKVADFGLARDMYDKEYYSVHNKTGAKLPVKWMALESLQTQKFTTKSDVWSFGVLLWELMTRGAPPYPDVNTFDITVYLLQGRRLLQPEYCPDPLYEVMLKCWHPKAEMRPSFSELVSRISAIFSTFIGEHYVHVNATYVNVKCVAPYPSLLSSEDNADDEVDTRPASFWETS
Sequence of Dual specificity mitogen-activated protein kinase kinase 1 (Homo sapiens) (Q02750 whole entry): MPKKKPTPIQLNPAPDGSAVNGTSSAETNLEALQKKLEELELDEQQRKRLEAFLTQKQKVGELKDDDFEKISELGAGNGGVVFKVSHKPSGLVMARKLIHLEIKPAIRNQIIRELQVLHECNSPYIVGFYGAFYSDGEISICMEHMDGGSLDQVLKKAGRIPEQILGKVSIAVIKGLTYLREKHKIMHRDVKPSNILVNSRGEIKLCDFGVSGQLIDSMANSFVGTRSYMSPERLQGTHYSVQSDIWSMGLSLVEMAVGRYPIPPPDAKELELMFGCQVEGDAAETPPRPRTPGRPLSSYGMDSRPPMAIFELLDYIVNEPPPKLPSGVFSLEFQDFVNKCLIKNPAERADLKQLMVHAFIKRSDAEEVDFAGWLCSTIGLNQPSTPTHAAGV
Sequence of Serine/threonine-protein kinase A-Raf (Homo sapiens) (P10398 whole entry): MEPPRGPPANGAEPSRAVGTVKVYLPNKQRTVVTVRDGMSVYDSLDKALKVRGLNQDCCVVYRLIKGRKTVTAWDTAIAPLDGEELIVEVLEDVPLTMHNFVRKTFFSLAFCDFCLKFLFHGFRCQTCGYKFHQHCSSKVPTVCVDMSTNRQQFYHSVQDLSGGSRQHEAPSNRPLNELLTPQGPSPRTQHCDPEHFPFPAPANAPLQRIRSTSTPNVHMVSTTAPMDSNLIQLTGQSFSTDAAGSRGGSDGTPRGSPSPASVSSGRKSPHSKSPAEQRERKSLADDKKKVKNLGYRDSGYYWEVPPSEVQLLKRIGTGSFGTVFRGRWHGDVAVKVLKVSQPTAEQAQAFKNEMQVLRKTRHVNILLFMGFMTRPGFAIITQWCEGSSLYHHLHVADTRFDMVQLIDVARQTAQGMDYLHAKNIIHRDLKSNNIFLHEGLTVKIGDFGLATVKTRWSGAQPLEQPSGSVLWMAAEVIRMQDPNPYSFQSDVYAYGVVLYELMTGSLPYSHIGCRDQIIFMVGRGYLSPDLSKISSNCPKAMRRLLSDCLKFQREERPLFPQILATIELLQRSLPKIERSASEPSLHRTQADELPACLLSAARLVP

Structure (SMILES): COc1cc2cc(Oc3ccc(NC(=O)Nc4ccc(F)c(C(F)(F)F)c4)cc3)c(C)nc2cc1OCCN1CCOCC1
- GI50 (HL-60): 2.38 µM
- GI50 (RPMI-8226 [1]): 1.12 µM
- GI50 (A549): 2.57 µM
- GI50 (NCI-H460): 1.96 µM
- GI50 (NCI-H522): 2.04 µM
- GI50 (COLO 205 [2]): 1.87 µM
- GI50 (SF-295): 1.35 µM
- GI50 (LOX IMVI): 1.44 µM
- GI50 (Malme-3M [3]): 1.57 µM
- GI50 (SK-MEL-28): 1.62 µM
- GI50 (UACC-257): 1.75 µM
- GI50 (UACC-62 [4]): 1.36 µM
- GI50 (OVCAR-5 [5]): 5.11 µM
- GI50 (OVCAR-8 [6]): 2.73 µM
- GI50 (SK-OV-3): 3.76 µM
- GI50 (ACHN [7]): 2.3 µM
- GI50 (RXF 393): 1.78 µM
- GI50 (SN12C): 2.65 µM
- GI50 (TK-10): 4.94 µM
- GI50 (UO-31): 1.71 µM
- GI50 (PC-3): 1.44 µM
- GI50 (MDA-MB-231): 2.83 µM
- GI50 (MDA-MB-468): 0.45 µM
- TGI (RPMI-8226 [8]): 4.25 µM
- TGI (HOP-62): 20.5 µM
- TGI (COLO 205 [9]): 4.28 µM
- TGI (HT-29): 21.8 µM
- TGI (SW-620): 9.86 µM
- TGI (SF-539): 3.44 µM
- TGI (Malme-3M [10]): 3.24 µM
- TGI (UACC-62 [11]): 4.24 µM
- TGI (OVCAR-3): 13.6 µM
- TGI (OVCAR-5 [12]): 21.7 µM
- TGI (OVCAR-8 [13]): > 100 µM
- TGI (ACHN [14]): 11.4 µM
- inhibition [15]: 13.1%
- inhibition [16]: 3.05%

Structure (SMILES): COc1cc2cc(Oc3ccc(NC(=O)Nc4cc(C(F)(F)F)cc(C(F)(F)F)c4)cc3)c(C)nc2cc1OCCN1CCOCC1
- GI50 (HL-60): 1.62 µM
- GI50 (RPMI-8226 [1]): 0.84 µM
- GI50 (A549): 1.72 µM
- GI50 (NCI-H460): 1.66 µM
- GI50 (NCI-H522): 1.63 µM
- GI50 (COLO 205 [2]): 1.02 µM
- GI50 (SF-295): 1.14 µM
- GI50 (LOX IMVI): 1.46 µM
- GI50 (Malme-3M [3]): 1.2 µM
- GI50 (SK-MEL-28): 1.8 µM
- GI50 (UACC-257): 1.4 µM
- GI50 (UACC-62 [4]): 1.67 µM
- GI50 (OVCAR-5 [5]): 2.18 µM
- GI50 (OVCAR-8 [6]): 1.67 µM
- GI50 (SK-OV-3): 2.09 µM
- GI50 (ACHN [7]): 1.53 µM
- GI50 (RXF 393): 1.12 µM
- GI50 (SN12C): 1.49 µM
- GI50 (TK-10): 3.7 µM
- GI50 (UO-31): 1.01 µM
- GI50 (PC-3): 1.18 µM
- GI50 (MDA-MB-231): 1.7 µM
- GI50 (MDA-MB-468): 1.22 µM
- TGI (RPMI-8226 [8]): 2.12 µM
- TGI (HOP-62): 9.16 µM
- TGI (COLO 205 [9]): 2.18 µM
- TGI (HT-29): 7.14 µM
- TGI (SW-620): 7.17 µM
- TGI (SF-539): 5.25 µM
- TGI (Malme-3M [10]): 3.79 µM
- TGI (UACC-62 [11]): 6.9 µM
- TGI (OVCAR-3): 5.28 µM
- TGI (OVCAR-5 [12]): 7.97 µM
- TGI (OVCAR-8 [13]): 12.8 µM
- TGI (ACHN [14]): 5.42 µM
- inhibition [17]: 1.23%
- inhibition [15]: 25.5%
- inhibition [16]: 1.04%
- fold change (FC) (RPMI-8226 [18]): 1.97
- fold change (FC) (RPMI-8226 [19]): 2.68
- fold change (FC) (RPMI-8226 [20]): 2.84
- Activity (RPMI-8226 [21]): 9.5%
- Activity (RPMI-8226 [22]): 23.4%
- Activity (RPMI-8226 [23]): 31.65%
- Papp A→B [24]: 0.4 ×10⁻⁶ cm/s
- recovery [25]: 74%

Structure (SMILES): COc1cc2cc(Oc3ccc(NC(=O)Nc4ccc(Cl)c(C(F)(F)F)c4)cc3)c(C)nc2cc1OCCN1CCOCC1
- GI50 (HL-60): 2.32 µM
- GI50 (RPMI-8226 [1]): 0.94 µM
- GI50 (A549): 2.13 µM
- GI50 (NCI-H460): 1.65 µM
- GI50 (NCI-H522): 1.43 µM
- GI50 (COLO 205 [2]): 1.63 µM
- GI50 (SF-295): 1.19 µM
- GI50 (LOX IMVI): 1.39 µM
- GI50 (Malme-3M [3]): 1.52 µM
- GI50 (SK-MEL-28): 1.55 µM
- GI50 (UACC-257): 1.57 µM
- GI50 (UACC-62 [4]): 1.36 µM
- GI50 (OVCAR-5 [5]): 4.02 µM
- GI50 (OVCAR-8 [6]): 2.67 µM
- GI50 (SK-OV-3): 3.34 µM
- GI50 (ACHN [7]): 2.03 µM
- GI50 (RXF 393): 1.77 µM
- GI50 (SN12C): 2.56 µM
- GI50 (TK-10): 4.97 µM
- GI50 (UO-31): 1.4 µM
- GI50 (PC-3): 1.36 µM
- GI50 (MDA-MB-231): 2 µM
- GI50 (MDA-MB-468): 0.47 µM
- TGI (RPMI-8226 [8]): 4.34 µM
- TGI (HOP-62): 4.55 µM
- TGI (COLO 205 [9]): 3.78 µM
- TGI (HT-29): 11.2 µM
- TGI (SW-620): 5.52 µM
- TGI (SF-539): 3.26 µM
- TGI (Malme-3M [10]): 3.27 µM
- TGI (UACC-62 [11]): 3.46 µM
- TGI (OVCAR-3): 3.47 µM
- TGI (OVCAR-5 [12]): 65.2 µM
- TGI (OVCAR-8 [13]): > 100 µM
- TGI (ACHN [14]): 11.6 µM
- inhibition [17]: -6.33%
- inhibition [15]: 21.7%
- inhibition [16]: 4.3%
